# Reference: patent US20230110998A1, “Compositions and Methods for Treatment of Cytokine Storm and Cytokine Release Syndrome” (Yinuoke Medicine Science Technology Company Ltd., priority 2020, published 2023)
# Key:
# IL-6 = test: Serum IL-6 levels in LPS-induced CRS; type: in vivo, BALB/c mice; conditions: 50 µg LPS i.p.; 10 mg/kg single i.p. injection; serum 2 hours after challenge; versus PBS, p=0.0023
# Experimental: 8-week-old male BALB/c mice were used for these studies. The mice were challenged with 50 µg LPS (Sigma Cat. No. L2630) dissolved in 0.1 mL PBS, a dosage designed to ensure all animals survived the challenge, via intraperitoneal injection. Mouse serum was collected 2 hours after the challenge, and IL-6 was measured with the Mouse Il-6 Flex Set (BD Biosciences Cat. No. 558301).
# Within 2 minutes of the LPS injection, test compound ketorolac (racemic mixture) or control vehicle (PBS) was administered at 10 mg per kg body weight by single intraperitoneal injection. 5 mice were included per experimental group.
# LPS-induced CRS [1] = test: Acute diarrhea caused by high-dose LPS-induced CRS; type: in vivo, BALB/c mice; conditions: LPS 15 mg/kg i.p.
# Experimental: 8-10-week-old female BALB/c mice were used for these studies. The mice were challenged with LPS at 15 mg per kg body weight, a dosage which had been empirically determined to induce diarrhea in 100% of tested subjects, via intraperitoneal injection. The mice were monitored for diarrhea symptoms, with diarrhea defined by the presence of watery stools 6 hours after treatment. Within 2 minutes of the LPS injection, test compound ketorolac (racemic mixture, suspended in PBS) or control vehicle (PBS) was administered at 0.1 mg (corresponding to 5 mg/kg) by single intraperitoneal injection.
# LPS-induced CRS [2] = test: Survival of mice with LPS-induced CRS; type: in vivo, BALB/c mice; conditions: 0.2 mg LPS i.p.
# Experimental: 8-week-old female BALB/c mice were used for these studies. […] The mice were challenged with 0.2 mg LPS (Sigma Cat. No. L2630) dissolved in 0.1 mL PBS via intraperitoneal injection. The mice were monitored for health condition and survival for a minimum of seven days. […]
# LPS-induced CRS [3] = test: Body weight loss caused by low-dose LPS-induced CRS; type: in vivo, BALB/c mice; conditions: 0.05 mg LPS i.p.; 0.3 mg (15 mg/kg) oral; next day; compared with aspirin, p=0.0267
# Experimental: 8-week-old female BALB/c mice were used for these studies. The mice were challenged with 0.05 mg LPS (Sigma Cat. No. L2630) via intraperitoneal injection. Body weight was measured before LPS challenge and the next day after the challenge.
# Within 2 minutes of LPS injection, test compound (R)-ketorolac (0.3 mg, corresponding to 15 mg/kg), aspirin (0.3 mg, corresponding to 15 mg/kg), or control vehicle (PBS) was orally administered.
# COX1 = COX1 (Homo sapiens, UniProt P23219); conditions: no test described; cited from earlier work
# COX2 = target: T1, COX2 (Homo sapiens, UniProt P35354); conditions: no test described; cited from earlier work
# T1 sequence (P35354 18-604): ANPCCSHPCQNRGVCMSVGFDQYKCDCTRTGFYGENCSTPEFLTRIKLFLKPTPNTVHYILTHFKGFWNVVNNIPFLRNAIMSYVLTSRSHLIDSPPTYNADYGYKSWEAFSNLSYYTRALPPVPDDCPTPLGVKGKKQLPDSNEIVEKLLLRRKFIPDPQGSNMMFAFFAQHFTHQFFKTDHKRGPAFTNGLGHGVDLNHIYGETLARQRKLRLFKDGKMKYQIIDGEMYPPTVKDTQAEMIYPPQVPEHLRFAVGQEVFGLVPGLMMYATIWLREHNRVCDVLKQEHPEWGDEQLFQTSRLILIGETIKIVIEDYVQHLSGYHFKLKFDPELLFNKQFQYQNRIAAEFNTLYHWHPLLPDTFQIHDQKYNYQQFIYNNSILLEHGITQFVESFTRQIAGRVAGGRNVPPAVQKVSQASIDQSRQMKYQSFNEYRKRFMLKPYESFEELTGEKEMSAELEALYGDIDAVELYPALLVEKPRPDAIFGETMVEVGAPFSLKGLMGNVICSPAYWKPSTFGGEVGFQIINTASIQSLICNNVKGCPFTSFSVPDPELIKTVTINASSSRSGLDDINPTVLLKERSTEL
# [4] = tested on: C26 tumor cell-induced cytokine storm; test: Tumor-induced cytokine storm model, serum cytokines (Mouse-Cytokine-32-Plex assay); conditions: gavage 0.2 mg daily for six days, serum on day 7, compared to PBS controls
# Experimental: Cytokine storm inducing C26 tumor cells were cultured in Advanced RPMI 1640 medium supplied with 5% fetal bovine serum and 1% penicillin/streptomycin and maintained in a 5% CO2, 37° C. humidified incubator. Tumor cells with viability of >90% were chosen for the study. Viable tumor cells (1 × 10^6 cells) were re-suspended in 100 µL of PBS and subcutaneously injected into the left flank of mice. All procedures were performed in laminar flow hood following sterile techniques.
# 6-8 week BALB/c male and female mice were used for these studies. Following tumor inoculation, the animals were returned to the cage. The mice were monitored for the appearance of palpable tumor and cytokine storm development by observing health condition change and testing serum cytokines with Mouse-Cytokine-32-Plex assay.
# 2-4 mice were included in each experimental group. On day 7, mouse blood samples were collected and allowed to clot for one hour at room temperature. The samples were then centrifuged for 15 min at 3,000 rpm (1500 × g) at 4° C. Thirty microliters of serum per treatment animal were assessed for cytokine profiles using a Mouse-Cytokine-32-Plex assay (Eve Technologies Corporation, Calgary, AB, Canada).
# Chain of COX1 (P23219 24-599): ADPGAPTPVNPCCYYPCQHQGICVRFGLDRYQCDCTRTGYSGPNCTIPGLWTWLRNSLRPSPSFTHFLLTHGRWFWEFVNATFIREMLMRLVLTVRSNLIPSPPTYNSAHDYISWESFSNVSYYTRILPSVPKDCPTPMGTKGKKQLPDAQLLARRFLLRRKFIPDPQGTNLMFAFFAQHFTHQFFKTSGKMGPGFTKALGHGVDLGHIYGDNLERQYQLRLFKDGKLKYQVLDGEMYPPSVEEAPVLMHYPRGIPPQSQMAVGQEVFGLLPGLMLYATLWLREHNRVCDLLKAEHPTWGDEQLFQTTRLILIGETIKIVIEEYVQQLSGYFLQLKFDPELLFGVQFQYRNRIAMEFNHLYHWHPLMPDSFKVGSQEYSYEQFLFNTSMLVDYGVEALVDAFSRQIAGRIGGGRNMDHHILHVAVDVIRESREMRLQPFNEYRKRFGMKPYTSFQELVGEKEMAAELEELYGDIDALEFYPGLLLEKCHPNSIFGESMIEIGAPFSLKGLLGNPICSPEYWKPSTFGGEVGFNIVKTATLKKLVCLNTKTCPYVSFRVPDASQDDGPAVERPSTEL
SMILES,serum IL-6 levels (IL-6),"decrease of acute diarrhea occurrence (LPS-induced CRS [1]; 0.1 mg (5 mg/kg) i.p., versus control) [%]","diarrhea present, % of mice (LPS-induced CRS [1]; 0.1 mg (5 mg/kg) single i.p. injection, watery stools 6 hours after treatment, n=8, control 87.5%) [%]","survival rate (LPS-induced CRS [2]; 10 mg/kg single dose, surviving mice / n=6)","survival rate (LPS-induced CRS [2]; 10 mg/kg, control 33.3%) [%]","increase in survival rate (LPS-induced CRS [2]; 10 mg/kg, versus PBS control) [%]",body weight loss (LPS-induced CRS [3]),activity against COX1 (COX1),activity against COX2 (COX2),serum concentration of G-CSF [4],serum concentration of GM-CSF [4],serum concentration of IL-1β [4],serum concentration of IL-6 [4],serum concentration of IL-7 [4],serum concentration of IL-10 [4],serum concentration of LIF [4],serum concentration of MCP-1 [4],serum concentration of MIP-1A [4],serum concentration of TNF-α [4]
O=C(c1ccccc1)c1ccc2n1CCC2C(=O)O (racemic) [ketorolac],decreased serum IL-6 levels,65,12.5,,,,,,,,,,,,,,,,
O=C(c1ccccc1)c1ccc2n1CC[C@H]2C(=O)O [(R)-ketorolac],,,,⅚,83.3,50,significantly reduced body weight loss,not active,not active,effective in reducing,effective in reducing,effective in reducing,effective in reducing,effective in reducing,effective in reducing,effective in reducing,effective in reducing,effective in reducing,effective in reducing
